# Assay results reported in PMC8596838, “Xylose‐Configured Cyclophellitols as Selective Inhibitors for Glucocerebrosidase” (Chembiochem, 2021).
# Read-outs that look alike come from different tables or passages of the source.
# Target: GBA2 (Danio rerio, UniProt E7F5W0)
# Assay: In vivo inhibition in zebrafish larvae, read out by cABPP with ABP 10, GBA2
# Set-up: species or system zebrafish (Danio rerio)
# Description: We further investigated the affinity of 1 and 2 towards β‐D‐glucosidases in living animals using zebrafish (Danio rerio) embryos, which express both GBA and GBA2. Following exposure for 5 days, fish larvae were sacrificed and lysed, and cABPP with ABP 10 was used to detect residual active β‐D‐glucosidase molecules in the lysates and for IC50 determination. […] Aziridine compound 2 is also selective against GBA over GBA2, albeit with a narrower selectivity window (Figure 6A–C). We noted that the apparent IC50 in zebrafish embryo is much […] than the observed in intact cells despite the longer incubation time, which could be a result of poorer bioavailability of the cyclophellitol‐related structures in whole animal, as noted earlier by us.[36]
# Figure 6 In vivo inhibitory effect of β‐D‐xylo‐configured compounds on β‐glucosidases in zebrafish (Danio rerio) larvae. (A) Larvae were exposed to 5 dpf with the indicated inhibitor 1 or 2 in the medium. Larvae were lysed and incubated with fluorescent ABP 10. Fluorescently labeled proteins were visualized after SDS‐PAGE, only GBA and GBA2 were assessed in zebrafish larvae model. (B) Apparent IC50 values towards β‐glucosidases (GBA and GBA2) were determined by the fluorescence quantification based on cABPP results. (C) In vivo inhibition curves. (D) GlcSph levels in zebrafish larvae were determined as described in experiment section, n=2 replicates.
# ABP labeling procedure: Glycosidases were labeled with excess fluorescent ABPs at optimum conditions. ABP labeling was performed at 37 °C for 30 min for all materials (if not otherwise stated), in a total sample volume of 20–40 μL and 0.5–1 % DMSO concentration. GBA was labeled with 200 nM ABP 9 (pH 5.2, 0.1 % (v/v) Triton‐100, 0.2 % (w/v) sodium taurocholate), or labeled together with GBA2 using 200 nM β‐D‐glucose‐configured aziridine ABP 10 at pH 5.8, or labeling together with GBA2 and GBA3 using 200 nM β‐D‐glucose‐configured aziridine ABP 10 at pH 6.0. After ABP incubation, proteins were denatured by boiling the samples with 5× Laemmli buffer (50 % (v/v) 1 M Tris‐HCl, pH 6.8, 50 % (v/v) 100 % glycerol, 10 % (w/v) DTT, 10 % (w/v) SDS, 0.01 % (w/v) bromophenol blue) for 5 min at 98 °C, and separated by electrophoresis on 10 % (w/v) SDS‐PAGE gels running continuously at 90 V. Wet slab‐gels were scanned on fluorescence using the Typhoon FLA 9500 (GE Healthcare) at λEX 473 nm and λEM≥510 nm for green fluorescent ABP 8; and at λEX 635 nm and λEM≥665 nm for ABP 6, 9 and 10. ABP‐emitted fluorescence was quantified using ImageQuant software (GE Healthcare, Chicago, IL, USA) and curve‐fitted using Prism 8.0 (GraphPad Software). After fluorescence scanning, SDS‐PAGE gels were stained for total protein with Coomassie G250 and scanned on a ChemiDoc MP imager (Bio‐Rad, Hercules, CA, USA).[25]
# Inhibition of enzymes in zebrafish larvae: Experiments were performed with 5 dpf larvae. For inhibitor treatment, a single fertilized embryo was seeded in a well of a 96‐wells plate, and exposed to 200 μL corresponding inhibitor for 115 hours at 28.5 °C. Per condition, n=24 embryos were used. At 115 hours (5 dpf), larvae were collected, rinsed three times with egg water, fully aspirated, snap‐frozen in liquid nitrogen and stored at −80 °C until homogenization in 96 μL 25 mM potassium phosphate buffer per 24 individuals. Lysis was conducted by sonication with a Polytron PT 1300D sonicator (Kinematica, Luzern, Switzerland) on ice at 20 % power for three seconds, and repeated three times. […]
# [1] = IC50 ratio, zebrafish larvae 5 dpf
# Chain of GBA2 (E7F5W0 entry or part of it): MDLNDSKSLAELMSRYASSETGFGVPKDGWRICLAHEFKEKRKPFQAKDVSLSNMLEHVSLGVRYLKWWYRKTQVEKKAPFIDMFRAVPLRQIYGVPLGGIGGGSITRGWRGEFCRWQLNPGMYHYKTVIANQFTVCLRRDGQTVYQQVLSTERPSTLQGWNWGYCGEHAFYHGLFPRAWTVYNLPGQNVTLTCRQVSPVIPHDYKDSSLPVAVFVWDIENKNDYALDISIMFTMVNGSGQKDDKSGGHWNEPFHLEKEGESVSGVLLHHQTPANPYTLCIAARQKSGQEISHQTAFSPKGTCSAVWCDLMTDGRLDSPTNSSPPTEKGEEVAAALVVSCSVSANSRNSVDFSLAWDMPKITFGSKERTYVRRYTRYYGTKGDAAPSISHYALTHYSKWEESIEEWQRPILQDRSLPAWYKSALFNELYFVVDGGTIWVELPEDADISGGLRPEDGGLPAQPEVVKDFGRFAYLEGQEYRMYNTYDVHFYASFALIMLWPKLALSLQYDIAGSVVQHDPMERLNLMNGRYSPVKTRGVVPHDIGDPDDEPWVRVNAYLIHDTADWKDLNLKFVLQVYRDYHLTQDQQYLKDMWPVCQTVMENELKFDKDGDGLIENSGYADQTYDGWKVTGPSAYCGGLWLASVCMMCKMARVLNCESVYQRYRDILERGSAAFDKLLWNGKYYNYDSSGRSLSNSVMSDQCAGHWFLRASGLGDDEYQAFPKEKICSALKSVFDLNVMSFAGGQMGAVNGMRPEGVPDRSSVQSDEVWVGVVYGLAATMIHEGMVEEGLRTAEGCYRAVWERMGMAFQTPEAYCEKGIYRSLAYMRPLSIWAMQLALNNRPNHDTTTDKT
"effect on ABP labelling of GBA2 in zebrafish at 150 μM (150 μM, exposure for 5 days)","IC50 (larvae exposed to 5 dpf, inhibitor in the medium, cABPP quantification; read-out: Zebrafish larvae IC50 GBA2)",SMILES,"GBA2/GBA ratio, zebrafish larvae [1]","IC50 (read-out: Zebrafish larvae IC50 GBA2; larvae exposed to 5 dpf, inhibitor in the medium, cABPP quantification)"
without targeting GBA2,> 150 µM,"O[C@@H]1[C@@H](O)[C@H](O)C[C@H]2O[C@@H]12 [compound 1, xylo‐cyclophellitol]",> 50,–
–,–,"O[C@@H]1[C@@H](O)[C@H](O)C[C@H]2N[C@@H]12 [compound 2, β‐D‐xylo‐Cyclophellitol aziridine]",21,150 µM
